Measurements as given in PubChem BioAssay (NCI).
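Step 1: Grow cells in 96-well plates. Step 2: Expose to compound for 48 hours at 5 concentrations. Step 3: Interpolate endpoints linearly; if unreached, use highest concentration. The concentration for 50% growth inhibition is given as GI50. The concentration for full growth arrest is given as TGI.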

What was measured:
Experiment in all cases: inhibition of tumour cell growth, NCI panel, 48 h
NCI/ADR-RES ovarian = test system: NCI/ADR-RES ovarian
SK-MEL-28 melanoma = test system: SK-MEL-28 melanoma
MCF7 breast = test system: MCF7 breast
RPMI-8226 leukemia = test system: RPMI-8226 leukemia
SW-620 colon = test system: SW-620 colon
HCT-116 colon = test system: HCT-116 colon
MDA-MB-435 = test system: MDA-MB-435
LOX IMVI melanoma = test system: LOX IMVI melanoma
SK-MEL-2 melanoma = test system: SK-MEL-2 melanoma
NCI-H522 lung = test system: NCI-H522 lung

SMILES | GI50 (NCI/ADR-RES ovarian) | TGI (NCI/ADR-RES ovarian) | GI50 (SK-MEL-28 melanoma) | TGI (SK-MEL-28 melanoma) | GI50 (MCF7 breast) | TGI (MCF7 breast) | GI50 (RPMI-8226 leukemia) | TGI (RPMI-8226 leukemia) | GI50 (SW-620 colon) | TGI (SW-620 colon) | GI50 (HCT-116 colon) | TGI (HCT-116 colon) | GI50 (MDA-MB-435) | TGI (MDA-MB-435) | GI50 (LOX IMVI melanoma) | TGI (LOX IMVI melanoma) | GI50 (SK-MEL-2 melanoma) | TGI (SK-MEL-2 melanoma) | GI50 (NCI-H522 lung) | TGI (NCI-H522 lung)
COc1cc(/C=N\Nc2ccccc2)ccc1OC(=O)c1ccccc1 | 0.903 µM | > 100 µM | 19.2 µM | > 93.1 µM | 1.57 µM | 23.7 µM | 3.79 µM | > 55.9 µM | 0.736 µM | 19.9 µM | 5.76 µM | > 100 µM | 1.25 µM | > 100 µM | 0.296 µM | 4.57 µM | 2.1 µM | 60 µM | 1.02 µM | > 76.6 µM
N#Cc1ccc2c(-c3ccnc(NC4CC4)n3)c(-c3ccc(F)cc3)nn2c1 | > 25 µM | > 25 µM | > 25 µM | > 25 µM | > 25 µM | > 25 µM | > 25 µM | > 25 µM | > 25 µM | > 25 µM | > 25 µM | > 25 µM | > 25 µM | > 25 µM | > 25 µM | > 25 µM | > 25 µM | > 25 µM | > 25 µM | > 25 µM
COc1ccc(/C(=C(\c2ccccc2)[N+](=O)[O-])c2ccc(OCCN3CCCC3)cc2)cc1 | 8.41 µM | 24.2 µM | 1.77 µM | 3.38 µM | 0.194 µM | 3.63 µM | 2.53 µM | 10.6 µM | 1.74 µM | 4.19 µM | 2.46 µM | 13.5 µM | 2.85 µM | 10.5 µM | 2.05 µM | 6.73 µM | 2.06 µM | 5.06 µM | 2.46 µM | 9.62 µM
CCCCCn1sc(=O)n(Cc2ccc(CNC(=O)C(C)c3ccc(CC(C)C)cc3)cc2)c1=O (centres undefined) | 1.65 µM | 5.54 µM | 1.43 µM | 2.75 µM | 0.56 µM | 2.26 µM | 0.353 µM | 2.1 µM | 0.37 µM | 1.46 µM | 0.194 µM | 0.72 µM | 0.876 µM | 2.17 µM | 0.474 µM | 1.52 µM | 1.5 µM | 2.98 µM | 0.162 µM | 2.11 µM
Cc1ccc(C)c(N2CCN(c3ccncc3N)CC2)c1 | 14.5 µM | > 100 µM | 19.6 µM | 40.8 µM | 10.3 µM | 29.6 µM | 11.7 µM | 35.5 µM | 5.13 µM | 24.6 µM | 11.9 µM | > 100 µM | 14.9 µM | 36.3 µM | 20.6 µM | 61.1 µM | 15.6 µM | 31.2 µM | 9.97 µM | 26.7 µM
COc1cc2c(c3oc4c(O)cccc4c(=O)c13)CC(C(C)(O)CCl)O2 (centres undefined) | – | 11.9 µM | – | 3.74 µM | – | 12.9 µM | – | 0.655 µM | – | 3.74 µM | – | 2.53 µM | – | 1.55 µM | – | 0.026 µM | – | 3.38 µM | – | 5.94 µM
CC1CCc2c(C(=O)Nc3ncc(Cc4cccc([N+](=O)[O-])c4)s3)csc2C1 (centres undefined) | 0.46 µM | > 100 µM | 3.66 µM | > 100 µM | 0.268 µM | > 100 µM | 1.14 µM | > 100 µM | 0.414 µM | > 100 µM | 0.468 µM | > 100 µM | 0.133 µM | 0.45 µM | 0.48 µM | > 100 µM | 0.586 µM | > 100 µM | 0.387 µM | –
O=C1c2ccc3c4c(ccc(c24)C(=O)N1CCCCO)C(=O)N(CCCCO)C3=O | 2.33 µM | 11 µM | 2.6 µM | 10.4 µM | 1.43 µM | 3.84 µM | 2.79 µM | 14.3 µM | 1.86 µM | 10.1 µM | 1.22 µM | 6.16 µM | 1.46 µM | 2.86 µM | 1.35 µM | 3.58 µM | 1.84 µM | 6.88 µM | 1.55 µM | 5.73 µM
Cc1cnc(C(=O)Nc2nc3ccc(S(=O)(=O)Nc4ccc(C(C)(C)C)cc4)cc3[nH]2)cn1 | 0.37 µM | 3.57 µM | 1.17 µM | 14 µM | 0.338 µM | 11.3 µM | 0.47 µM | 12.4 µM | 0.422 µM | 13.9 µM | 0.498 µM | 6.22 µM | 0.135 µM | 0.434 µM | 0.79 µM | 13.1 µM | 1.26 µM | 17.3 µM | 0.356 µM | 8.9 µM
N#Cc1cnn(C(=O)c2nn(-c3ccc(Cl)cc3)cc2O)c1N | 0.401 µM | 8.78 µM | 0.63 µM | 27.3 µM | 0.373 µM | 10.5 µM | 0.21 µM | 0.657 µM | 0.521 µM | 21 µM | 0.26 µM | 10.9 µM | 0.312 µM | 18.9 µM | 0.434 µM | 12 µM | 0.908 µM | 18.9 µM | 0.173 µM | 1.47 µM
COc1ccc2c(c1O)[C@@]13CCCC=C1[C@@H](C2)N(C)CC3 | – | > 100 µM | – | > 100 µM | – | > 100 µM | – | > 100 µM | – | > 100 µM | – | > 100 µM | – | > 100 µM | – | > 100 µM | – | > 100 µM | – | 76.2 µM
CCOC(=O)Nc1cc2c(c(N)n1)N=C(c1ccc(Cl)cc1Cl)CN2 | – | 18.9 µM | – | 29.5 µM | – | 21.7 µM | – | > 100 µM | – | 30.4 µM | – | 12.7 µM | – | < 0.0239 µM | – | 44.8 µM | – | 19.7 µM | – | 1.08 µM
